Source: patent US20080153907A1, “Pharmaceutical Composition for the Treatment of Cancer Comprising Lhm-Ra Complex” (NANOHYBRID CO., LTD., priority 2005, published 2008)

Key:
CHX tumor cells [1] = assay: Activity of lactic acid dehydrogenase associated with apoptotic cell death; assay type: cell-based; conditions: 250 μg/ml of RA, 12 hours
Experimental: In order to evaluate an anticancer effect of a LDH-RA hybrid obtained according the present invention, activity of lactic acid dehydrogenase associated with apoptotic cell death was measured. For this, the CHX tumor cells were seeded into each well of a 96-well plate. The CHX tumor cells were divided into 6 groups: normal group with no treatment, LDH-dose group with 1,000 μg/ml of LDH, RA-dose group with 250 μg/ml of RA, LDH-RA low-dose group with 25 μg/ml of LDH-RA, LDH-RA mid-dose group with 50 μg/ml of LDH-RA, and LDH-RA high-dose group with 100 μg/ml of LDH-RA. All groups were cultured for 12 hours. 20 μl of pyruvate substrate (NADH 1 mg/ml) was added to each group, and the cultures were mixed at room temperature for 2 minutes and stirred at 37° C. for 30 minutes. 20 μl of a color reagent (Sigma 505-2) was added to each culture, and the resultant cultures were mixed at room temperature for 20 minutes. 100 μg of 0.4N NaOH was added to each culture, and the resultant cultures were mixed at room temperature for 15 minutes. Referring to FIG. 9, the activities of lactic acid dehydrogenase of the normal group, the LDH-dose group, and the RA-dose group were 6±1.5%, 13±2%, and 42±5%, respectively. The activities of lactic acid dehydrogenase of the LDH-RA low-dose group, the LDH-RA mid-dose group, and the LDH-RA high-dose group were 41±2%, 76±6%, and 86±5%, respectively. […]

CHX tumor cells [2] = assay: Tumor development in xenografted nude mice (tumor size); assay type: in vivo, athymic nude mice; conditions: RA 0.5 mg/ml, LDH-RA 50 μg/ml, every two weeks for 8 weeks; control tumor 30 mm after 8 weeks
Experimental: (§1) The CHX tumor cells were collected at 1×10^7 cells/well and administered subcutaneously to the hind legs of athymic nude mice. Appearance of tumor mass was observed every week. Tumor masses appeared 3 weeks after the subcutaneous administration, and, when a tumor size was increased to 5 mm, one group of the mice was untreated (control group), and the other groups of the mice were treated as follows: a LDH-dose group with LDH (1 mg/ml), a RA-dose group with RA (0.5 mg/ml), and a LDH-RA dose group with LDH-RA (50 μg/ml). The LDH-dose group, the RA-dose group, and the LDH-RA dose group were further treated with LDH, RA, and LDH-RA, respectively, every two weeks for 8 weeks. Referring to FIG. 12, in the control group, a tumor size was increased to 30 mm after 8 weeks. […] In the RA-dose group, a tumor size was reduced by about 20%. In the LDH-RA dose group, a tumor size was reduced by 80% or more. After then, the mice were anesthetized. Tumor tissues were cut, fixed in formalin, and cut into sections (5 μm thick) on a microtome. The sections were stained with hematoxylin/eosin (H/E) and examined with a microscope (50× magnification), and the results are shown in FIG. 13. Referring to FIG. 13, in the control group, tumor masses were found in almost all tissues, thereby causing growth retardation of tumor, resulting in necrosis. […]

CHX tumor cells [3] = assay: H/E staining of tumor tissues from xenografted nude mice; assay type: in vivo, athymic nude mice; conditions: RA 0.5 mg/ml, every two weeks for 8 weeks
Experimental: as §1

For `CC1=C(/C=C/C(C)=C/C=C/C(C)=C/C(=O)O)C(C)(C)CCC1` [RA, retinoic acid], the “activity of lactic acid dehydrogenase” value (CHX tumor cells [1]) was 42±5%, the “tumor size reduced by” value (CHX tumor cells [2]) was “about 20%” and the “reduction in tumor tissues (H/E staining)” value (CHX tumor cells [3]) was 15%.
